According to article PMC8130708 (Journal of medicinal chemistry, 2021):
Entries after “also recorded” stand apart in the source; their conditions may differ.

Columns and labels:
PWWP domains = details: DSLS
NSD2-PWWP1 [1] = biological target: T1, NSD2-PWWP1 (Homo sapiens, UniProt O96028); test: Differential static light scattering; format: binding; details: read-out: increase of melting temperature of N-terminal PWWP domain of NSD2
T1 sequence (O96028 211-350): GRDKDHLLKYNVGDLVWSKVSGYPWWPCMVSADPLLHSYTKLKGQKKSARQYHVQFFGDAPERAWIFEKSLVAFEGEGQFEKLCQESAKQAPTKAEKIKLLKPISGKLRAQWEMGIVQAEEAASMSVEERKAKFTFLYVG

NSD2-PWWP1 [2] = biological target: T2, NSD2-PWWP1 (Homo sapiens, UniProt O96028); format: binding; details: for potency on NSD2-PWWP1, SAR statement in words: relative to parent compound 2 or 3, Tables 1 and 2 (images, DSLS/SPR)
T2 sequence (O96028 222-286 limits assumed): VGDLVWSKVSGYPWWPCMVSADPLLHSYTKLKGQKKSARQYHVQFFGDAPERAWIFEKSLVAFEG

| Compound | potency on NSD2-PWWP1, SAR statement in words (NSD2-PWWP1 [2]) | other results |
| --- | --- | --- |
| N#Cc1ccc(C(C(N)=O)N2CCC2c2ccc(Cl)cc2)cc1 (centres unmarked) [Compound 1] | – | binding to six other PWWP-containing proteins (PWWP domains; compound at 400 μM (Table S2)): did not bind; ΔTm at 400 µM (NSD2-PWWP1 [1]): 4 °C |
| N#Cc1ccc(C(=O)N2CCCC2c2ccccc2)cc1 (centres unmarked) [Compound 2a] | improved potency | – |
| COc1ccc(C2CCCN2C(=O)c2ccc(C#N)cc2)cc1 (centres unmarked) [Compound 2b] | no significant effect | – |
| O=C(c1ccccc1)N1CCCC1c1ccccc1 (centres unmarked) [Compound 2h] | abolished activity | – |
| Cc1ccc(C(=O)N2CCCC2c2ccc(Cl)cc2)cc1 (centres unmarked) [Compound 2i] | abolished activity | – |
| N#Cc1ccc(C(=O)N(Cc2ccc(F)cc2)C2CC2)cc1 [Compound 3] | – | fold more potent than compound 1 (NSD2-PWWP1 [2]; ratio of SPR Kd values): 6; fold more potent than compound 2 (NSD2-PWWP1 [2]; ratio of SPR Kd values): 25 |
| CN(Cc1ccc(F)cc1)C(=O)c1ccc(C#N)cc1 [Compound 3a] | much weaker or completely inactive | – |
| N#Cc1ccc(C(=O)NCc2ccc(F)cc2)cc1 [Compound 3b] | much weaker or completely inactive | – |
| N#Cc1ccc(C(=O)N(Cc2cccs2)C2CC2)cc1 [Compound 3f] | – | binding / effect on melting temperature in a panel of 10 PWWP domains (PWWP domains; compound at 100 μM (Figure 2C)): only bound NSD2-PWWP1; also recorded: only affects the melting temperature of NSD2-PWWP1 |
